Activity calls are given as the source filed them.

The values below come from ChEMBL document CHEMBL1201862, “PubChem BioAssay data set” (2004).

For test [1], the target named is Protein-tyrosine kinase 2-beta (Homo sapiens, UniProt Q14289).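 Also: potency of inhibitors of PYK2 kinase phosphorylation of poly-GT substrate.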
Test [2] concerns the target T1, Tyrosine-protein phosphatase non-receptor type 7 (Homo sapiens, UniProt P35236).
T1 sequence (P35236 whole entry): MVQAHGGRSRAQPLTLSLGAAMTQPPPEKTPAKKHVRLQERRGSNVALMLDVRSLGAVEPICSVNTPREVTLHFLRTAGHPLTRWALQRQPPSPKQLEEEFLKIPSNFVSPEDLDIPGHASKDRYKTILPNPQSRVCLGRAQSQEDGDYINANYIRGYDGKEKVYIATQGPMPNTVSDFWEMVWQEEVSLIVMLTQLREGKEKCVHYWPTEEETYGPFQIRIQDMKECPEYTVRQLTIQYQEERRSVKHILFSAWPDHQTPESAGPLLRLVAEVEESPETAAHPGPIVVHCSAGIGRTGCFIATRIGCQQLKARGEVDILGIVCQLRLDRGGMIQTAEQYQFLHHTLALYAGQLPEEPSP
Put plainly: HePTP tyrosine phosphatase activity blockers – biochemical, absorbance, leukemia target, primary screen (AID 521). Type of test: functional.

In test [3] the target is T2, Neuropeptide Y receptor type 2 (Homo sapiens, UniProt P49146). Put plainly: IC50 for human NPY-Y2 blockade – cell-based, counter-screen for NPY-Y1 antagonist project, dose response (AID 1278). The class given is functional.
T2 sequence (P49146 whole entry): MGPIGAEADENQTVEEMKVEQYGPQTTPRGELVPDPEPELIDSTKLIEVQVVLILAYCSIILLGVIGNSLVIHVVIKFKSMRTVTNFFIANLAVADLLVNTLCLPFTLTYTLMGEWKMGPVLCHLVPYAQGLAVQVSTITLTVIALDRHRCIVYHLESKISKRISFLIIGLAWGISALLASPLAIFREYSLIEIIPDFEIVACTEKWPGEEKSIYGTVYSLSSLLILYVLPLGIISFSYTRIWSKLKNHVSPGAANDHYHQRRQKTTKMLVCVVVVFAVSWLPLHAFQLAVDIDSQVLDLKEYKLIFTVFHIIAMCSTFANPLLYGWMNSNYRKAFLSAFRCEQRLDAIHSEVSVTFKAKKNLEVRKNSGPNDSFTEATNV
Test [4] concerns the target T3, Rac GTPase-activating protein 1 (Homo sapiens, UniProt Q9H0H5).
T3 sequence (Q9H0H5 whole entry): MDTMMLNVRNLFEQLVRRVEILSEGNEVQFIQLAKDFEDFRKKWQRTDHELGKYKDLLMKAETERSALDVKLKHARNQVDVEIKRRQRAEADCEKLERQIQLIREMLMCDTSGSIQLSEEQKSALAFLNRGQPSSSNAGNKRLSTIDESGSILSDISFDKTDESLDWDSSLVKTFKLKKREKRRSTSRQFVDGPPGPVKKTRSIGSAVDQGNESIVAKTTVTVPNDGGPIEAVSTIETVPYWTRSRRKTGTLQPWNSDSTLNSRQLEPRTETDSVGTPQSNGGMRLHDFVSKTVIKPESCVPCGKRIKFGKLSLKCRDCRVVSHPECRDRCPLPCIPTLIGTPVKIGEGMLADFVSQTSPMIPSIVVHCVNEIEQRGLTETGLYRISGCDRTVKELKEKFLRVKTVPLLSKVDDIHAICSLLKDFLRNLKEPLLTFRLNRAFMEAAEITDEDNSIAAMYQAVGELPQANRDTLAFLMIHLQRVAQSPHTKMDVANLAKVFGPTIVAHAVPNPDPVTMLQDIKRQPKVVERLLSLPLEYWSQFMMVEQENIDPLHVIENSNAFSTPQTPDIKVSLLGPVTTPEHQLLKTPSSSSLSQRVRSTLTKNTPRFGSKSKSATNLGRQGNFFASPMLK
As to the kind of experiment: blockers of MgcRacGAP-driven Rac1 GTP hydrolysis – biochemical, ADP Hunter fluorescence, primary and confirmatory, confirmation (AID 624330). Type of test: functional.

For test [5], the target named is T4, Neuropeptide Y receptor type 1 (Homo sapiens, UniProt P25929). As to the kind of experiment: IC50 of human NPY-Y1 blockers – cell-based, dose response (AID 1277). The class given is functional.
T4 sequence (P25929 whole entry): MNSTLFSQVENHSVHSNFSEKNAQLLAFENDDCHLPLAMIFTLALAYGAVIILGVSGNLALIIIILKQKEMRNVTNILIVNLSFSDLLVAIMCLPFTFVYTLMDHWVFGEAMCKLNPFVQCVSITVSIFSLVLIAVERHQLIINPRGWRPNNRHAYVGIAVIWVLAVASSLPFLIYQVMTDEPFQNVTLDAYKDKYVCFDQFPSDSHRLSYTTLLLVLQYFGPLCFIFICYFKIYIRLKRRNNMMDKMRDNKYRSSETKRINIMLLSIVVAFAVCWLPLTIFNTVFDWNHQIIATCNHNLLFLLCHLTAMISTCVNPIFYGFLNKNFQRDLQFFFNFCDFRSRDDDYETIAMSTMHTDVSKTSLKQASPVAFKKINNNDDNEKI
Test [6] addresses Major prion protein (Homo sapiens, UniProt P04156). The class given is functional, cell-based.
The nature of test [7]: cells.
Test [8] can be described thus: cells. The class given is functional, cell-based.
Test [9] deals with T5, Nuclear receptor subfamily 0 group B member 1 (Homo sapiens, UniProt P51843).
T5 sequence (P51843 whole entry): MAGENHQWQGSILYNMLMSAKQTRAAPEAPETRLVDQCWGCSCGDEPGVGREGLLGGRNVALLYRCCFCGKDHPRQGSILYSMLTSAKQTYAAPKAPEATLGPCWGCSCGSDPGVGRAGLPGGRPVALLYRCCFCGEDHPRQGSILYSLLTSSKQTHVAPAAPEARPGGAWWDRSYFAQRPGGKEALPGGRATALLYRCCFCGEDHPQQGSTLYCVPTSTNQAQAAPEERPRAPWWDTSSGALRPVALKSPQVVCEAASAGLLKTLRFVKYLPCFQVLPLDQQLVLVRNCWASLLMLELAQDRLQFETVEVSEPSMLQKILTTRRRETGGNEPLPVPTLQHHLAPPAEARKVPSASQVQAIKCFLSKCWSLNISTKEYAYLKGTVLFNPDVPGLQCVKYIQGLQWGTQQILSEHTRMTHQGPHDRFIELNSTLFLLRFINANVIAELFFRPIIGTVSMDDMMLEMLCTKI
The class given is functional, cell-based.

In test [10] the target is Voltage-gated inwardly rectifying potassium channel KCNH2 (Homo sapiens, UniProt Q12809). Put plainly: concentration-dependent hERG rescue from blockers – cell-based, thallium flux, dose response (AID 2121). Type of test: ADME.
Sequence of Voltage-gated inwardly rectifying potassium channel KCNH2 (Q12809 whole entry): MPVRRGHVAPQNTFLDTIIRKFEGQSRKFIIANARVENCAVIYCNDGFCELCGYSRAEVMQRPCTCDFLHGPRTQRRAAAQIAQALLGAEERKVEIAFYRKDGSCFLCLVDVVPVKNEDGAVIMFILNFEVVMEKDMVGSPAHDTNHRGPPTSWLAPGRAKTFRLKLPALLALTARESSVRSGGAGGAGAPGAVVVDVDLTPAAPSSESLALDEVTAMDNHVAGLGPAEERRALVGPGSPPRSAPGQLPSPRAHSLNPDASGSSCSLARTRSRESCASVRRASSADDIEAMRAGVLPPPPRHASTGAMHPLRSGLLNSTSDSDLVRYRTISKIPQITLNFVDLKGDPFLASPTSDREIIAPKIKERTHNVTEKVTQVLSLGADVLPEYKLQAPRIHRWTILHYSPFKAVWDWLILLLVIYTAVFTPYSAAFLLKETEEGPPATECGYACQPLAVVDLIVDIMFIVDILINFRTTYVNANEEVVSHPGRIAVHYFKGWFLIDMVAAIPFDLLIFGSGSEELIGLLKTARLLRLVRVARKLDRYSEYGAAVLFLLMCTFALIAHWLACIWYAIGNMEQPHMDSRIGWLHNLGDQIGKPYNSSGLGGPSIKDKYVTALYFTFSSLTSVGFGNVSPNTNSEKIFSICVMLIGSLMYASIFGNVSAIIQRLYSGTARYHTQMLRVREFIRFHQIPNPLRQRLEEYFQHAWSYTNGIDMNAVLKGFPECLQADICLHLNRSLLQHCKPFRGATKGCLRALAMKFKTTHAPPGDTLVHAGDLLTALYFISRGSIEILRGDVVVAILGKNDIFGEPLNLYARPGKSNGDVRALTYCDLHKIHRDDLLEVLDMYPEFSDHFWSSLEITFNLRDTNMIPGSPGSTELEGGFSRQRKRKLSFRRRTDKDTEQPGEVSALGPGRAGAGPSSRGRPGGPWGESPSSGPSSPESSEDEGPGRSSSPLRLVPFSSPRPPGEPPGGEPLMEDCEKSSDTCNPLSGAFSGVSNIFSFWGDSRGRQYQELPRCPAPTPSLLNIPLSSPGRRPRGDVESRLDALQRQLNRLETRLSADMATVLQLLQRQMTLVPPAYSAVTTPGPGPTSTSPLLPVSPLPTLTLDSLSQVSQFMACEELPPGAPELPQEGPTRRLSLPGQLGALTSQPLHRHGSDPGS
Test [11] addresses T6, Ion channel NompC (Danio rerio, UniProt Q7T1G6). Put plainly: Late stage counterscreen for the probe development effort to identify selective agonists of the Transient Receptor Potential Channels 3 (TRPML3): fluorescence-based cell-based dose response assay for TRPN1 agonists. Type of test: functional.
Test [12] addresses T6, Ion channel NompC. Put plainly: Fluorescence counterscreen assay for TRPML3 agonists: dose response cell-based high-throughput screening assay to identify agonists of the transient receptor potential channel N1 (TRPN1). [Related pubchem assays: 1526, 1424, 1448 ]. Type of test: functional.
Test [13] deals with Mucolipin-3 (Homo sapiens, UniProt Q8TDD5). Put plainly: Dose response cell-based high-throughput screening assay for agonists of the transient receptor potential channel ML3 (TRPML3). [Related pubchem assays: 1526, 1424, 1448 ]. The class given is functional.
Sequence of Mucolipin-3 (Q8TDD5 whole entry): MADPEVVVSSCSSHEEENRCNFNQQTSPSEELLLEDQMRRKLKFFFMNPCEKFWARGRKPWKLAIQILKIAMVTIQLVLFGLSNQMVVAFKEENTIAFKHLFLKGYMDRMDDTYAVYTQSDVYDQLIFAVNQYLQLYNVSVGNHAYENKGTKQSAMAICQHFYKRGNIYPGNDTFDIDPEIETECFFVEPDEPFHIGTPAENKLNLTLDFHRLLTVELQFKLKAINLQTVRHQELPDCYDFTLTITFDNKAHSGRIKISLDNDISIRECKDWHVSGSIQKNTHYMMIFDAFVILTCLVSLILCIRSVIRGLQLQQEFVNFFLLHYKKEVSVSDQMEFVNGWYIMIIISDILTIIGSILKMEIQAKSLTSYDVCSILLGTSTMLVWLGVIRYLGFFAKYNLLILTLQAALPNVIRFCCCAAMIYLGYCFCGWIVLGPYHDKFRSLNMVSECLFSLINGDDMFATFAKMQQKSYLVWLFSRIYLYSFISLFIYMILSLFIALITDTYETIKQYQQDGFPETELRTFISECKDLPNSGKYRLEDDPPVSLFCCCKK
For test [14], the target named is T7, Calpain-2 catalytic subunit (Sus scrofa, UniProt P43367).
T7 sequence (P43367 whole entry): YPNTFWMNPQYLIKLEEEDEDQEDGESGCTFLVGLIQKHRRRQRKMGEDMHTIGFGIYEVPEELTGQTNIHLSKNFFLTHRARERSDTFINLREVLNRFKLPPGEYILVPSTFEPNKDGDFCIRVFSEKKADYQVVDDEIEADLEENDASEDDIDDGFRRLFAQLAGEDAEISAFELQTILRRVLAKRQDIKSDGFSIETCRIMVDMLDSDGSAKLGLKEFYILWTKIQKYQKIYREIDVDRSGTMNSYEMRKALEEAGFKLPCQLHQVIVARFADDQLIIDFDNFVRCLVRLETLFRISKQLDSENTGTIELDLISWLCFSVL
Put plainly: m-calpain protease blockers, concentration series – biochemical, fluorogenic peptide substrate, dose response (AID 1420). Type of test: functional.

The target in test [15] is T8, Replicative DNA helicase DnaB (Mycobacterium tuberculosis, UniProt P9WMR3).
T8 sequence (P9WMR3 whole entry): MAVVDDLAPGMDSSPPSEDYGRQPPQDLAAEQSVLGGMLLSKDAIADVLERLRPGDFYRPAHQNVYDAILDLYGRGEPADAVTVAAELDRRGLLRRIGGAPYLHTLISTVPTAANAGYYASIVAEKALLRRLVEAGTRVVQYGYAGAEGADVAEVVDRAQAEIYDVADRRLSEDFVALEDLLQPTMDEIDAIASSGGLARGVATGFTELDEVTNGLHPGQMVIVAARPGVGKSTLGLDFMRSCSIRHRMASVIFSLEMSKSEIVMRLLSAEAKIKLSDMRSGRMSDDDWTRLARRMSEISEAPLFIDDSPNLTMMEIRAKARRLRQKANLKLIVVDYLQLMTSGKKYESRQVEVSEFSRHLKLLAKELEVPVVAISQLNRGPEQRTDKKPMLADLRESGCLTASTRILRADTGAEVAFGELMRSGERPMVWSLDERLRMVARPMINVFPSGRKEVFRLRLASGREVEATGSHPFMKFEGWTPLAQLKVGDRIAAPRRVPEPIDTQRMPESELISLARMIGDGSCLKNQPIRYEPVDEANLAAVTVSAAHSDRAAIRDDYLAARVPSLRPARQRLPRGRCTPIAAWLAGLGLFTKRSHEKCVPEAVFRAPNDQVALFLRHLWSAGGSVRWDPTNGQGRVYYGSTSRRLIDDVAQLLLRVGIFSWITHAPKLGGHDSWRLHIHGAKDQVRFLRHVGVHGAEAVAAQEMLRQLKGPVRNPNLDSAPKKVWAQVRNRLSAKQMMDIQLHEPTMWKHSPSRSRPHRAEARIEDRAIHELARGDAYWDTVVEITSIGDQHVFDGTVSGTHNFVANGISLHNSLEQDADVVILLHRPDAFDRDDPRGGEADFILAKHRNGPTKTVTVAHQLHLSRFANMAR
Put plainly: DnaB intein splicing inhibitors, dose response, biochemical, cell-free fluorescence (AID 449749). Type of test: functional.

Test [16] addresses E3 ubiquitin-protein ligase Mdm2 (Homo sapiens, UniProt Q00987). As to the kind of experiment: MDM2-luc reporter signal enhancers, multi-concentration potency testing, MDM2 ubiquitin-protein ligase inhibitor program, whole-cell format, luminescence detection, 384-well microplate (AID 1394).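 Also: MDM2 E3 inhibitors raise luminescence so EC50 is for signal enhancement.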 The class given is functional.
Test [17] addresses G-protein coupled receptor 55 (Homo sapiens, UniProt Q9Y2T6). As to the kind of experiment: inhibition of LPI-stimulated GPR55 beta-arrestin translocation – imaging, U2OS, beta-arrestin-GFP, LPI agonist, primary screen (AID 2013).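 Also: antagonist potency measured as reduced agonist-driven arrestin aggregation.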 Type of test: functional.
Test [18] deals with T9, Protein RecA (Mycobacterium tuberculosis, UniProt P9WHJ3).
T9 sequence (P9WHJ3 whole entry): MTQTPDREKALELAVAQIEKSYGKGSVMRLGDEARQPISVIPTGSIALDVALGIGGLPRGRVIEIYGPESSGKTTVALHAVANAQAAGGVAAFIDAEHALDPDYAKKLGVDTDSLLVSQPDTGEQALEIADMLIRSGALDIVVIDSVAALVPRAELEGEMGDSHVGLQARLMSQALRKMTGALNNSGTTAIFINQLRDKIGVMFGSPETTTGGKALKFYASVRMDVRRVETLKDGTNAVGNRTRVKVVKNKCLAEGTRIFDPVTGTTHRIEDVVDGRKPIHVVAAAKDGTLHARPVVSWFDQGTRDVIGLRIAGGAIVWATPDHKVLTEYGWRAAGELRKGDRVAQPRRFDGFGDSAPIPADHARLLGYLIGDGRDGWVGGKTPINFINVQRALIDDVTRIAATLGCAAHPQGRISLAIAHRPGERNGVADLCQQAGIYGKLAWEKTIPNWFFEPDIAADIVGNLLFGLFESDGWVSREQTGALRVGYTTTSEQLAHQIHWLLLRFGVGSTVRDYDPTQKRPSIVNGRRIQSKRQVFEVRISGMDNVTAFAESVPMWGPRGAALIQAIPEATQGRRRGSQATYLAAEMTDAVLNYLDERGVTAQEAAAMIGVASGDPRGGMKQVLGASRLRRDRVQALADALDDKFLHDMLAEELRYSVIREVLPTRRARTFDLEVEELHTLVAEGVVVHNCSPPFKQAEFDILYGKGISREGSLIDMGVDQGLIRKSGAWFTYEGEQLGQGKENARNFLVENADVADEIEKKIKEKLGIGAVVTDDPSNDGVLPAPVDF
Put plainly: Fluorescence Cell-Free Homogeneous Dose Retest to Identify Inhibitors of RecA-Intein Splicing Activity. [Related pubchem assays (depositor defined):AID2097, AID2223, AID489010, AID492950]. Type of test: functional.

In test [19] the target is Ubiquitin carboxyl-terminal hydrolase BAP1 (Homo sapiens, UniProt Q92560). Put plainly: inhibition of BAP1 ubiquitin hydrolase activity – biochemical, dose response (AID 714). Type of test: functional.
The nature of test [20]: Trypanosoma cruzi growth suppression in host cells – NIH3T3 host cells, beta-gal luminescence, confirmation (AID 2044).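 Also: intracellular parasites grown in NIH/3T3 mouse fibroblasts as host cells; luminescent beta-galactosidase reporter signal from transgenic T. cruzi replicating inside host cells; inhibitors lower the luminescence signal.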 Type of test: functional, cell-based.
Test [21] deals with T4, Neuropeptide Y receptor type 1. The class given is functional.
Test [22] has as its target T2, Neuropeptide Y receptor type 2. The class given is functional, cell-based.
The nature of test [23]: NIH3T3 cell viability loss – ATP luminescence, mouse fibroblasts, counter-screen, dose response (AID 2010).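 Also: cells exposed to compound for about 90 hours before reading.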 Type of test: functional, cell-based.
The nature of test [24]: Luminescence Cell-Based Dose Retest to Confirm Inhibitors of Cancer Stem Cells. [Related pubchem assays (depositor defined):AID2717, AID2721]. The class given is functional. Particulars: Homo sapiens.
Test [25] has as its target Diphosphomevalonate decarboxylase (Streptococcus pneumoniae serotype 2 (strain D39 / NCTC 7466), UniProt Q9FD53). Put plainly: diphosphomevalonate decarboxylase inhibitor confirmation – biochemical, cuvette format, coupled NADH fluorescence (AID 1028). Type of test: functional.

T6 sequence (Q7T1G6 whole entry): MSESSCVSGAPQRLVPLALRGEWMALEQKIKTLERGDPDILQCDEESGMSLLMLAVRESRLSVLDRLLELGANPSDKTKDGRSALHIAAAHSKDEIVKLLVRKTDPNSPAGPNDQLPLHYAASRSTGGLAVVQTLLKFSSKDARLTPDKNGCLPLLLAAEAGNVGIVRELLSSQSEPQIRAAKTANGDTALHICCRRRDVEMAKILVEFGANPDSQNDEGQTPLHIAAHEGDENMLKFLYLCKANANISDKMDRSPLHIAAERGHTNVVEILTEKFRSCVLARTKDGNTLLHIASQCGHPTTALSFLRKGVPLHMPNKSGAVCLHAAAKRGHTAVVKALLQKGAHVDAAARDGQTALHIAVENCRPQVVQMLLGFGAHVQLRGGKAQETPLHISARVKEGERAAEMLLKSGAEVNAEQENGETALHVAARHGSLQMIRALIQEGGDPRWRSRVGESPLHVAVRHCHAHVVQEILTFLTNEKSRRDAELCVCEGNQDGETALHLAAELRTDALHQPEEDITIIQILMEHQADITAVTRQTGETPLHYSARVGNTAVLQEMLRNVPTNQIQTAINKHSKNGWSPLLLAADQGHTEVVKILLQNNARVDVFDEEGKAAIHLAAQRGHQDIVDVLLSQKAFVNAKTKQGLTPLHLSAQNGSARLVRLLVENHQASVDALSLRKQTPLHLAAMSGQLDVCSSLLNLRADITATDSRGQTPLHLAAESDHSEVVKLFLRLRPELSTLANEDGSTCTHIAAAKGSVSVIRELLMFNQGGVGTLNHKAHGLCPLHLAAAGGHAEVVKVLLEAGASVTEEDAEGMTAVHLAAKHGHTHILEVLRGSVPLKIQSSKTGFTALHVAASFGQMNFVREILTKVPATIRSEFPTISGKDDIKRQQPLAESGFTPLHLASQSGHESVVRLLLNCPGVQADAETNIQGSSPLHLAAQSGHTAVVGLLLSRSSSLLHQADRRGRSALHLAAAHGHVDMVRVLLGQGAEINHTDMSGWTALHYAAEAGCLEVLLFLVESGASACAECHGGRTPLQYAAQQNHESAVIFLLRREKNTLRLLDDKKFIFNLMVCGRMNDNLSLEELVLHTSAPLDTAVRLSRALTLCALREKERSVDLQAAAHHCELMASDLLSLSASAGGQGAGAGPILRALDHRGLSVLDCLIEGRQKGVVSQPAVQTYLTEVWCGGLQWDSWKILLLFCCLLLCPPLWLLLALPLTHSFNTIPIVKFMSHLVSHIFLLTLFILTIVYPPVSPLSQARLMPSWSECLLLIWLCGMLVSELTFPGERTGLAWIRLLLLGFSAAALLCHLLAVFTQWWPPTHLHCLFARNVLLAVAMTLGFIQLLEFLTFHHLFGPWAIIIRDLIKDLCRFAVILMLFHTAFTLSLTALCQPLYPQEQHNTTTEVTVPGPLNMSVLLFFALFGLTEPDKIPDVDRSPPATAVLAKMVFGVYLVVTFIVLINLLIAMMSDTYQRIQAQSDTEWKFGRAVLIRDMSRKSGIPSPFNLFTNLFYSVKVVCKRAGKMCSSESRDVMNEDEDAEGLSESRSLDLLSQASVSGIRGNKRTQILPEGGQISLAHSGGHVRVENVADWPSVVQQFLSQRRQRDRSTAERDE
Sequence of G-protein coupled receptor 55 (Q9Y2T6 whole entry): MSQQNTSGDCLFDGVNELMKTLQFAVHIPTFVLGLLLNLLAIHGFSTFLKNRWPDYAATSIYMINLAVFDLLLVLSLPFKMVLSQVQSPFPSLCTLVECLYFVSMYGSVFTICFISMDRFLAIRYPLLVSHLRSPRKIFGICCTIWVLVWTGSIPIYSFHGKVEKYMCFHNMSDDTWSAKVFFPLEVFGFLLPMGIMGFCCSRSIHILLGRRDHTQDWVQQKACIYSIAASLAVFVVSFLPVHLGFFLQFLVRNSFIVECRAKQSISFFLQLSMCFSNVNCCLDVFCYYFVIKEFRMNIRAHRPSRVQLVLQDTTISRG
Sequence of E3 ubiquitin-protein ligase Mdm2 (Q00987 whole entry): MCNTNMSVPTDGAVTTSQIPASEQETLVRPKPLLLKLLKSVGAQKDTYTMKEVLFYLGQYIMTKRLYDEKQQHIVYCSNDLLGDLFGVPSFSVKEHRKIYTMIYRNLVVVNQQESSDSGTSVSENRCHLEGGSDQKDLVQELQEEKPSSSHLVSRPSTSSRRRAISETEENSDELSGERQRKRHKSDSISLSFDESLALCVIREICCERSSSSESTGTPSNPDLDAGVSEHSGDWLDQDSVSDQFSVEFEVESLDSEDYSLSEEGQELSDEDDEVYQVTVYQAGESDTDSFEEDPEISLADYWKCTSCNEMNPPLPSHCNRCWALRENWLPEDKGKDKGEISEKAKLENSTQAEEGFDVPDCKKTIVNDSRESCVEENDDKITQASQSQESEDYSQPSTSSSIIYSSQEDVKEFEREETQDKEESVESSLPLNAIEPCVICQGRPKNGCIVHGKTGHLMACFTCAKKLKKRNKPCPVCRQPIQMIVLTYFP

Regarding `O=C(OCCN=C1NS(=O)(=O)c2ccccc21)c1cccnc1`, in test [1], the IC50 is > 69.5 µM (not active).

As to `Cc1cnn(C(=S)NCc2ccc(Cl)cc2)c1`, the IC50 in [2] is reported as > 100 µM (not active).

As for `COc1ccc(Oc2c[nH]nc2-c2ccc(O)cc2O)cc1`, the figures for the IC50 in test [3], in [4] and in test [5] were > 35 µM (not active), 28.3 µM (active) and > 35 µM (not active), respectively.

`O=C(COc1ccc2ccccc2c1Br)Nc1cccnc1`: the IC50 in test [6] was 5.81 µM (active); in [7], > 138 µM (inactive); in [8], > 67.5 µM (inactive); in test [9], > 67.5 µM (inactive). Besides, the EC50 in [10] is 0.24 µM (active).

Turning to `CCOc1ccc(S(=O)(=O)N2CCCCC2)c(C)c1C`, the EC50 is > 29.9 µM (not active) in test [11], > 29.9 µM (not active) in test [12] and 1.43 µM (active) in test [13]. The IC50 in [14] is listed as 32.6 µM (not active).

`CN(C(=O)c1cccc(COc2ccc(Cl)cc2Cl)c1)c1ccccc1`: in test [15], the AC50 was 10.6 µM (active). The EC50 was 0.16 µM (active) in test [16] and 7.59 µM (active) in test [18]. Further, the IC50 in test [17] is 2.2 µM (active).

On to `CCCCn1c2c(c3ccccc31)CCc1nonc1-2`, for which the IC50 in test [19] is recorded as > 50 µM (not active).

Turning to `CN1CCN(c2ccccc2NC(=O)c2ccc(-c3ccc(Cl)cc3Cl)o2)CC1`, the EC50 in test [20] is 1.06 µM (active); in test [23], > 60 µM (not active). Besides, the IC50 in test [21] was 4.46 µM (active); in test [22], > 12 µM (not active). For the same compound, the AC50 in test [24] was 3.09 µM (active).

Consider `CCCNC(=O)c1ccccc1-n1sc2ccccc2c1=O`, for which, in [25], the IC50 was 31.3 µM (active).
